US11471478B2, “Use of cyclodextrins in diseases and disorders involving phospholipid dysregulation” (priority 2017, dated 2022)
Marks after values point to notes of the source that are not given here.

What was measured:
BBB = settings: cited from earlier work
[1] = i.v.; cited from earlier work
whole blood = settings: cited from earlier work
rats = settings: rat, in vivo, iv; cited from earlier work
mice/rats = settings: in vivo; cited from earlier work
keratinocytes = settings: cited from earlier work
[2] = system: MDA-MB 231 and MCF-7 human breast epithelial cell lines; assay: Wound healing / gap closure migration assay; format: cell-based; settings: for inhibition of migration, 1 mM HP-α-CD versus 2 mM HP-β-CD: MDA-MB-231 and MCF-7
Protocol: Published results have shown that β-CD inhibits human MDA-MB 231 cell migration (Guerra F S, Sampaio LdS, et al. (2016) Translational Medicine Communications 1:3). This inhibition was attributed to the ability of β-CD to “deplete cholesterol”. β-CD, however, depletes also phospholipids. […] Cells were cultured in 24-well culture plates (Cytoselect CBA-120, 0.9 mm wound healing/gap closure migration assay) for 24 h with wound healing insert in place. Cells were then treated for 2 h with HP-β-CD, HP-α-CD, or control. Protocol: Warm up the 24-well plate (CBA-120, Cell BioLabs Inc.) with 0.9 mm CytoSelect Wound Healing Inserts at room temperature for 10 min. Using sterile forceps, orient the desired number of inserts in the plate wells with their “wound field” aligned in the same direction. […] Add 500 μL of cell suspension to each well by carefully inserting the pipette tip through the open end at the top of the insert. For optimal cell dispersion, add 250 μL of cell suspension to either side of the open ends at the top of the insert. Incubate cells in a cell culture incubator for 12-24 hours. Carefully remove the insert from the well to begin the wound healing assay. Use sterile forceps to grab and lift the insert slowly from the plate well. Slowly aspirate and discard the media from the wells. Wash wells with media to remove dead cells and debris. Finally, add media to wells to keep cells hydrated. Repeat wash if wells still have debris or unattached cells. When washing is complete, add media with FBS and/or compounds to continue cell culture and wound healing process. Agents that inhibit or stimulate cell migration can be added directly to the wells. Incubate cells in a cell culture incubator (2 hours) and then wash cells with PBS and then add fresh media without compounds. Incubate 12-24 hours before wash and fixing. Remove the fixation solution and add 400 μL of Cell Stain Solution to each well. Allow the stain to incubate with the cells for 15 minutes at room temperature. Aspirate and discard the solution. Carefully wash each stained well 3× with deionized water. Discard washes and allow cells to dry at room temperature. Cells that migrated into the wounded area or protruded from the border of the wound were visualized and photographed under an inverted microscope. Determine the surface area of the defined wound area: Total Surface Area=0.9 mm×length. Determine the surface area of the migrated cells into the wound area: Migrated Cell Surface Area=length of cell migration (mm)×2× length. Percent Closure (%)=Migrated Cell Surface Area/Total Surface Area×100 (see FIG. 36)

[3] = system: MDA-MB-231 breast cancer cells; assay: NSG mice injected with human MDA-MB-231 breast cancer cells; format: in vivo
Protocol: NSG mice (NOD.Cg-Prkdcscid Il2rgtm1Wjl/SzJ, strain #005557 (10 wk old) were obtained from Jackson Laboratories (Bar Harbor, Me.), housed in isolated quarters, and fed with autoclaved water and food.
An MDA-MB-231 cell line was obtained (ATCC) and kept frozen in liquid nitrogen. Upon start of culture, cells were thawed (1.5 min in 37° C. water) and transferred to DMEM/F-12 supplemented with 5% FBS, 2 mM L-glutamine, 1 mM sodium pyruvate, and 0.02 mM non-essential amino acids. Cells were grown to several millions in 60 mm dishes at 70-80% confluence. Before injection, cells were briefly rinsed twice in PBS followed by Versene (EDTA, Invitrogen) and placed on ice with excess phosphate-buffered saline and phenol red-free matrigel basement membrane extract to a concentration of about 15 mg/mL matrigel. 100 μL cell mixture (20,000 cells or saline only) were injected into the lactiferous duct of the 3rd or 4th mammary glands under brief isofluorane anesthesia. Groups of 15 mice each were injected IP with 800 mg/kg of HP-α-CD, HP-β-CD per week (over four days, Mon, Tue, Thu, Fri), or saline (control) for six weeks. Size of the primary tumor was measured weekly.
Breast tissue were palpated and measured twice a week with a micro-metric analytical device scaled to 1 mm precision. Mice were weighed weekly on a digital scale (0.1 g precision).
At the end of the study period, mice were anaesthetized with isofluorane with 1× phosphate-buffered saline (PBS) and subsequently with 4% formaldehyde in PBS. Tissue from lung and liver were removed and fixated in formalin for microscopic examination. Metastases were visualized and counted by tissue embedding in paraffin and sectioning with immunohistochemistry and histological stain (H&E) and immunostained with anti-HLA antibody. After blocking for 1 h with BSA (5%, frac V), the anti-HLA was incubated at 4° C. overnight, washed for 1 h in PBS, then incubated with biotinylated anti-mouse IgG for 1 h at room temperature. After washing with PBS, metastases were detected on the slide using Envision (Dako).
After blood collection, whole blood samples were centrifuged (at 10,000 m/s^2 for 15 min and then at 100,000 m/s^2 for 10 min), and plasma was isolated. The samples were stored at −80° C. until analysis.
Prior to analysis (30 min), samples and assay reagents were equilibrated to room temperature. The samples were run at a 1:4 dilution and quantified in duplicate using a multi-plex mouse panel for quantification of IL-1β, IL-18, IL-6, IL-8, IL-17A, and GM-CSF (Bio-Plex Pro assays, Bio-Rad Laboratories) on a Luminex Bio-Plex 200 System (Bio-Rad Laboratories).

HTT mice = HTT mice (R6/2), bodyweight; format: in vivo; settings: 8 wk old HTT mice, over 5 wk
Excerpt: (§1) ALS mice SOD1 G93A strain (B6SJL-Tg(SOD1*G93A)1Gur/J strain #002726, 10 wk old, and HTT mice (B6CBA-Tg(HDexon1)62Gpb/33; strain #006494 HTT: R6/2, 8 wk old), were obtained from Jackson Laboratories (Bar Harbor, Me.), housed in standard housing with controlled ambient conditions and provided with water and food at libitum.

SOD1 mice = assay: ALS mice SOD1 G93A, bodyweight; format: in vivo; settings: untreated mice began to lose bodyweight after 21 days
Excerpt: as §1

[4] = Randomized n-of-1 human PK/PD study: FPLC of morning urine after oral HP-α-CD preparations; settings: in vivo
Protocol: Urine samples (5-10 mL) were pipetted into culture tubes and then frozen for 30 min and samples were then lyophilized for 48-72 h, sealed and stored at −80° C. Phospholipids were extracted from urine samples after reconstitution, with chloroform (CHCl3) and methanol (3:1), and filtered through glass wool. The eluent was washed with 1 M KCl with 0.01% sodium azide. The wash was centrifuged at 3000 g for 30 min and CHCl3 layer transferred to fresh tube and evaporated at 60° C. under nitrogen. Phospholipid extracts and standards were digested in 10 M H2SO4 with 0.16 Ca(NO3)2 and 30% H2O2 and heated for 25 min at 180° C. […] These were vortexed and heated at 35° C. for 30 min. All samples were analyzed in triplicate.
This was coupled to a Beckman Ultra SI column using an isocratic elution profile along a mobile phase of acetonitrile-methanol-phosphoric acid solvent (100:10:1.8) at a flow rate of 1.0 mL/min at RT. The lyophilized samples were resuspended in a hexane-propanol-phenolphthalene mix (3:1:0.1) before injection.
The standard curves (FIG. 43) were generated using DiPalmitoyl-PC in the range of 0.65-32 μM phosphate equivalence. Percentage efficiency of isolation was determined through a comparison of the extraction recovery of total phosphate from normal urine spiked with known amount of synthetic PL with a parallel PL sample digested and assayed without extraction.

erythrocytes = settings: read-out: hemolytic IC50; cited from earlier work
SwN2a cells = settings: cited from earlier work
Npc1−/− mice = settings: mouse, in vivo; cited from earlier work
[5] = system: heterogeneous human epithelial colorectal adenocarcinoma (Caco-2) cells; settings: cited from earlier work
[6] = system: fibroblasts of lysosomal storage diseases; settings: about 6 mM α-CD, about 8 mM HP-β-CD; cited from earlier work
[7] = system: HeLa cells transfected with α-synuclein; settings: 20 mM for 1 hr; cited from earlier work
[8] = target: T1, breast cancer resistance protein (BCRP) (Homo sapiens, UniProt Q9UNQ0); settings: cited from earlier work
T1 sequence (Q9UNQ0 1-655): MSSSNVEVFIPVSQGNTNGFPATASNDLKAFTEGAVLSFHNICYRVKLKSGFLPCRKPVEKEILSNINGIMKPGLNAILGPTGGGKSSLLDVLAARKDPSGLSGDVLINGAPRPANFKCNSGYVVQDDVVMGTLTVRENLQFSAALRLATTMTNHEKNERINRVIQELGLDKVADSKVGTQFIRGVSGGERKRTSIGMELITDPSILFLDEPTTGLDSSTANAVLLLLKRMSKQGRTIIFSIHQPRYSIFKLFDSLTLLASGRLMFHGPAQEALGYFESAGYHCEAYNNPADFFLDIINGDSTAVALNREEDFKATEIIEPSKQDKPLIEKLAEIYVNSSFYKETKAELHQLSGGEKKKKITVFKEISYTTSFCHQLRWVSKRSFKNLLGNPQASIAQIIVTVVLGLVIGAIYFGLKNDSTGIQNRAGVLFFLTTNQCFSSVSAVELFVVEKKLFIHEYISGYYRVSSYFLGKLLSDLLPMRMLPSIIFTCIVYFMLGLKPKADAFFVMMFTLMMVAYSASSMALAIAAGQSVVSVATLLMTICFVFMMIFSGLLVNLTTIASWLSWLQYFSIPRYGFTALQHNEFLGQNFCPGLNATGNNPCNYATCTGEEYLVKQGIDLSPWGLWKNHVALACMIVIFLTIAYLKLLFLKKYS

[9] = IP 800 mg/kg per week for six weeks
[10] = u-statistics for multivariate data

CN1CCCC1c1cccnc1 (stereo not shown) [nicotine]
transported through the BBB (BBB; after 2 h of incubation, in vitro): 96%

OC[C@H]1O[C@@H]2O[C@H]3[C@H](O)[C@@H](O)[C@@H](O[C@H]4[C@H](O)[C@@H](O)[C@@H](O[C@H]5[C@H](O)[C@@H](O)[C@@H](O[C@H]6[C@H](O)[C@@H](O)[C@@H](O[C@H]7[C@H](O)[C@@H](O)[C@@H](O[C@H]8[C@H](O)[C@@H](O)[C@@H](O[C@H]1[C@H](O)[C@H]2O)O[C@@H]8CO)O[C@@H]7CO)O[C@@H]6CO)O[C@@H]5CO)O[C@@H]4CO)O[C@@H]3CO [β-CD, beta-cyclodextrin, reference compound]
half-life (t1/2) after i.v. in rats [1]: 20 min
whole blood TD50 (whole blood): 3.6 mM/L
i.v. toxicity, 1 g/kg daily (rats): all died ≤ 4 d
LD50 i.v./i.p. in mice/rats (mice/rats): 0.8/1.0 ^4) g/kg
Transport across BBB (BBB; 2 h, 1 mM): 26.7 (1 mM) %
toxicity on the BBB model (BBB): similarly safe
caspase-dependent apoptotic cell death (keratinocytes): induces caspase-dependent apoptotic cell death

2-hydroxypropyl-alpha-cyclodextrin [HP-α-CD]
cell migration / wound closure, concentration dependence ([2]; 2 h treatment, MDA-MB 231 and MCF-7): migration decreased with higher concentration
effect on migration, HP-α-CD versus HP-β-CD ([2]; MDA-MB 231 and MCF-7): stronger effect on migration than HP-β-CD
effect on migration, HP-α-CD versus HP-β-CD ([2]; MDA-MB 231 and MCF-7, listed as HPαCD): twice as effective as HP-β-CD
inhibition of migration, 1 mM HP-α-CD versus 2 mM HP-β-CD [2]: superior to inhibition at 2 mM HP-β-CD
inhibition of migration, 1 mM HP-α-CD versus 2 mM HP-β-CD ([2]; listed as HPαCD): more effective than 2 mM HPβCD
Tumor volume, median [3, 9]: 356 mm3
effect on tumor volume [3, 9]: more effective than HP-β-CD
plasma cytokines (IL-1β, IL-18, IL-6, IL-8, IL-17A, GM-CSF) versus Vehicle ([3]; conventional 0.05 level): not significant only in IL-6
mice that did not develop lung metastases ([3]; groups of 15 mice): 5 mice
mice who died ([3]; groups of 15 mice): one
comprehensive analysis of all six plasma cytokine markers [3, 10]: more effective than HP-β-CD
lung and liver metastases overall [3, 10]: more effective
decline in bodyweight (HTT mice): reduced decline in bodyweight
bodyweight growth (SOD1 mice): continued to grow for at least two more weeks
lysophospholipids in urine (fractions 9 and 10, LPC) [4]: higher than in all other groups
IC50 (erythrocytes): > 100 mM
level of membrane cholesterol (SwN2a cells): reduced
levels of Aβ42 (SwN2a cells): dramatically lowered
cholesterol accumulation (Npc1−/− mice): reduces cholesterol accumulation, albeit not as effectively as HP-β-CD
whole blood TD50 (whole blood): 360 mM/L
BBB breakdown (BBB): 2.5 mM
toxicity on the BBB model (BBB): similarly safe
cytotoxicity [5]: less cytotoxic than α-CD

methyl-β-cyclodextrin [M-β-CD]
reduction of lysosomal storage [6]: most effective cyclodextrin
co-location of α-synuclein with the cell membrane [7]: dramatically reduced
decrease in activity of BCRP [8]: 40%
